These results are taken from patent US7476514B2, “Method for monitoring the immune response and predicting clinical outcomes in transplant recipients” (Cylex, Inc., priority 2002, dated 2009).

The assay has as its system CD4 cells. In words: Cylex Immune Cell Function Assay (ImmuKnow): PHA-stimulated intracellular ATP in CD4 cells from whole blood of treated transplant patient. It is filed as cell-based, human. The method, then: Whole blood (100 μl of a 1:4 dilution) was tested in quadruplicate with or without phytohemagglutinin (PHA) (2.5 μg/mL) overnight (15-18 hours in a CO2 incubator at 37° C.). Anti-human CD4 monoclonal antibody coated magnetic particles (Dynal Biotech A.S.A., Oslo, Norway) were added to immunoselect CD4 cells from both the stimulated and non-stimulated wells. After washing the CD4 cells selected on a strong magnet (Cylex™ Cat. 1050) a lysing reagent was added to release intracellular ATP. A luciferin/luciferase mixture was then added to the cell lysate. Within 30 minutes after addition of enzyme, the bioluminescent product was measured in a luminometer (PHL Mediators, Austria or Berthold, Maryville, Tenn., or Turner Designs, Sunnyvale, Calif.) (See FIG. 1). The amount of light emitted (emission maximum 562 nm) was compared to a standard curve generated with ATP calibrators (0, 1, 10, 100, 1000 ng/mL). The concentration of ATP (ng/mL) in each sample was then calculated from the calibration curve using an Excel-based program provided by Cylex™.
To perform the assay, 200 μl of sodium heparin anticoagulated whole blood was diluted, aliquoted into wells of a 96-well microtiter plate and stimulated overnight with PHA. CD4+ cells were then selected using antibody-coated magnetic particles, washed and lysed to release intracellular ATP. The intensity of the patient's immune response was quantified by measuring the amount of intracellular ATP produced in response to stimulation.
To perform the Cylex™ Immune Cell Function Assay, 200 μl of sodium heparin anticoagulated whole blood was diluted, aliquoted into wells of a 96-well microtiter plate and stimulated overnight with PHA. CD4+ cells were then selected using antibody-coated magnetic particles, washed and lysed to release intracellular ATP. The intensity of the patient's immune response was quantified by measuring the amount of intracellular ATP produced in response to stimulation. Acute rejection was diagnosed by histopathologic studies of random and endoscopically guided multiple mucosal biopsies. […]

As to `C[C@H]1C[C@@H]2[C@H]([C@@H](O)C[C@@]3(C)[C@H]2CC[C@]3(O)C(=O)COC(=O)CCC(=O)[O-])[C@@]2(C)C=CC(=O)C=C12.[Na+]` [Solumedrol, methylprednisolone], the “change of immune response (ATP)” value (Case Study 2, Solumedrol re-initiated after week 43, read at week 44) is given as “dropped significantly”.
As for “OKT3: monoclonal antibody OKT3 (anti-CD3), antilymphocyte drug”, the “immune response (ATP)” value (Case Study 2, multivisceral transplant recipient with acute rejection, week 39, after initial infusion of OKT3/FK and Solumedrol) was determined as 954 ng/mL; the “immune response (ATP)” value (Case Study 2, after additional three-day course of OKT3) turned out to be 582 ng/mL.
